In brackets after ≈: the same amount, converted by molar mass. Where two headings read alike, the source gives them in different places.
Key:
Streptococcus pyogenes = assay: In vitro antibacterial activity, MIC by micro broth dilution; format: cell-based; settings: read-out: MIC Spy
Excerpt: (§1) The following strains isolated in clinic were used in antibacterial activity screening in vitro: five strains of methicillin-resistant Staphylococcus aureus or MRSA, five strains of methicillin-sensitive Staphylococcus aureus or MSSA, five strains of methicillin-resistant Staphylococcus epidermidis or MRSE, five strains of methicillin-sensitive Staphylococcus epidermidis or MSSE, three strains of penicillin-resistant Streptococcus pneumoniae or PRSP, and three strains of Streptococcus pyogenes.
(§2) The above strains were clinically isolated pathogenic bacteria collected in Sichuan and Beijing in December 2015. They were identified by the collection unit via a VITEK-60 automatic microbiological identification instrument, and then re-identified by conventional methods in the laboratory. Before the experiment, each strain was purified by a single colony on an agar plate, and the cells freshly cultured at 37° C. overnight were appropriately diluted for the experiment. Quality control strain was Staphylococcus aureus ATCC25923 purchased from the Clinical Testing Center of the Ministry of Health of the People's Republic of China.
(§3) Medium: MH (Mueller-Hinton, hydrolyzed casein) broth (OXOID);
(§4) Culture condition: Incubate at 35-37° C. for 16-18 h.
(§5) The MIC value of each test sample for the tested strain was determined by micro broth dilution method recommended by Performance Standards for Antimicrobial Susceptibility Testing (Twenty-Third Informational Supplement; M02-A11, M07-A9 and M11-A8, 2013) of American Clinical and Laboratory Standards Institute (CLSI).
(§6) After diluting each test sample to different concentrations in MH broth, 100 μl of each sample solution at different concentrations was pipetted into a sterilized 96-well polystyrene plate. In the first to twelfth wells, the drug solution was added, and the final drug concentrations in each well were 64, 32, 16, 8, 4, 2, 1, 0.5, 0.25, 0.125, 0.06, and 0.03 mg/L. The well without drug and without bacteria was set as blank control well. The well with bacteria and without drug was set as a bacterial growth control well.
(§7) The test bacterial solution was adjusted with physiological saline to a bacterial suspension equivalent to 0.5 Maisson turbidity standard, and diluted 1:100 with MH broth. The drug solution was added so that the final concentration of the bacterial solution was about 10^4 CFU/ml; then 100 μl of bacterial solution was pipetted into the above wells (the total volume in each well was 200 μl). The plate was sealed and placed in a 35-37° C. incubator for 18-20 h, and then the results were determined. […] When Streptococcus pneumoniae was tested, sterile defibrillated sheep blood was added into the Colombian broth culture medium at a final concentration of 5% and cultivation was conducted in a 5% CO2 and 35-37° C. incubator for 18-20 hours.

[1] = tested on: methicillin-resistant Staphylococcus aureus or MRSA; assay: as above; format: cell-based; settings: read-out: MIC MRSA
Excerpt: as §1, §2, §3, §4, §5, §6, §7

[2] = tested on: methicillin-resistant Staphylococcus epidermidis or MRSE; assay: as above; format: cell-based; settings: read-out: MIC MRSE
Excerpt: as §1, §2, §3, §4, §5, §6, §7

[3] = tested on: methicillin-sensitive Staphylococcus aureus or MSSA; assay: as above; format: cell-based; settings: read-out: MIC MSSA
Excerpt: as §1, §2, §3, §4, §5, §6, §7

[4] = tested on: methicillin-sensitive Staphylococcus epidermidis or MSSE; assay: as above; format: cell-based; settings: read-out: MIC MSSE
Excerpt: as §1, §2, §3, §4, §5, §6, §7

[5] = tested on: penicillin-resistant Streptococcus pneumoniae or PRSP; assay: as above; format: cell-based; settings: read-out: MIC PRSP
Excerpt: as §1, §2, §3, §4, §5, §6, §7

[6] = In vivo pharmacokinetics test in mice (oral); design: species or system CD-1 mice; settings: PO 10.0 mg/kg
Experimental: Healthy female CD-1 mice were randomly divided into five groups and each group comprised three mice. The tested compound was administered orally.
0.030 mL of blood was taken from the orbit of each animal each time and anticoagulated with EDTAK2. The collection time was as follows. PO group: 15 m, 30 mi, 1 h, 2 h, 4 h, 6 h, 8 h, and 24 h after administration of the test compound. The collected blood samples were placed on ice and centrifuged within 30 minutes to separate the plasma (centrifugation conditions: 5000 rpm, 10 minutes, room temperature). The samples were stored at −80° C. before analysis.

[7] = tested on: MRSA, MSSA, MRSE, MSSE, PRSP, and Spy; assay: In vitro antibacterial activity over the whole strain panel, compared with AZD0914; format: cell-based; settings: against MRSA
Excerpt: as §1, §2, §5, §6, §7

[8] = 3 clinical strains, range over strains

| SMILES | MIC (Streptococcus pyogenes) | MIC [1] | MIC [2] | MIC [3] | MIC [4] | MIC [5] | AUC0→t relative to AZD0914 ([6]; multiple of the AZD0914 value) | Cmax relative to AZD0914 ([6]; multiple of the AZD0914 value) | AUC0→t ([6]; plasma) | Cmax ([6]; plasma) | MRT ([6]; plasma) | Tmax ([6]; plasma) | t1/2 ([6]; plasma) | in vitro antibacterial activity relative to AZD0914 [7] | MIC (Streptococcus pyogenes; [8]) | MIC ([4]; 5 clinical strains, range over strains) | MIC [5, 8] |
| --- | --- | --- | --- | --- | --- | --- | --- | --- | --- | --- | --- | --- | --- | --- | --- | --- | --- |
| C[C@@H]1CN2c3c(cc4c(N5C[C@H](CN=[N+]=[N-])SC5=O)noc4c3F)CC3(C(=O)NC(=O)NC3=O)[C@H]2[C@H](C)O1 [Compound 10, (2R,4S,4aS)-8-((R)-5-(azidomethyl)-2-oxothiazol-3-yl)-11-fluoro-2,4-dimethyl-1,2,4,4a-tetrahydro-2′H,6H-spiro[isoxazole[4,5-g][1,4]oxazine[4,3-a]quinoline-5,5′-pyrimidine]-2′,4′,6′(1′H,3′H)-trione] | 0.125 to 1 µg/mL (≈ 0.23 to 1.84 µM) | 0.25 to 0.5 µg/mL (≈ 0.459 to 0.918 µM) | 0.03 to 0.125 µg/mL (≈ 0.0551 to 0.23 µM) | 0.06 to 0.25 µg/mL (≈ 0.11 to 0.459 µM) | 0.03 to 0.25 µg/mL (≈ 0.0551 to 0.459 µM) | 0.125 µg/mL (≈ 0.23 µM) |  |  |  |  |  |  |  |  |  |  |  |
| CC[C@@H]1CN(c2noc3c(F)c4c(cc23)CC2(C(=O)NC(=O)NC2=O)[C@H]2[C@H](C)O[C@H](C)CN42)C(=O)S1 [Compound 16, (2R,4S,4aS)-8-((R)-5-ethyl-2-oxothiazol-3-yl)-11-fluoro-2,4-dimethyl-1,2,4,4a-tetrahydro-2′H,6H-spiro[isoxazole[4,5-g][1,4]oxazine[4,3-a]quinoline-5,5′-pyrimidine]-2′,4′,6′(1′H,3′H)-trione] | < 0.03 µg/mL | 0.03 to 0.06 µg/mL (≈ 0.058 to 0.116 µM) | < 0.03 µg/mL | 0.03 to 0.06 µg/mL (≈ 0.058 to 0.116 µM) | < 0.03 µg/mL | 0.03 to 0.06 µg/mL (≈ 0.058 to 0.116 µM) | ~11 times) | ~13 times) | 8057 ± 1469 ng·h/mL | 2376 ± 411 ng/mL | 3.45 ± 0.788 h | 1.17 ± 0.764 h | 1.59 ± 0.495 h | about 8 times |  |  |  |
| CC[C@H]1CN(c2noc3c(F)c4c(cc23)CC2(C(=O)NC(=O)NC2=O)[C@H]2[C@H](C)O[C@H](C)CN42)C(=O)S1 [Compound 19, (2R,4S,4aS)-8-((S)-5-ethyl-2-oxothiazol-3-yl)-11-fluoro-2,4-dimethyl-1,2,4,4a-tetrahydro-2′H,6H-spiro[isoxazole[4,5-g][1,4]oxazine[4,3-a]quinoline-5,5′-pyrimidine]-2′,4′,6′(1′H,3′H)-trione] | < 0.03 µg/mL | < 0.03 µg/mL | < 0.03 µg/mL | < 0.03 µg/mL | 0.03 to 0.06 µg/mL (≈ 0.058 to 0.116 µM) | 0.03 to 0.06 µg/mL (≈ 0.058 to 0.116 µM) |  |  |  |  |  |  |  | about 8 times |  |  |  |
| C[C@@H]1CN2c3c(cc4c(N5C(=O)S[C@@H]6CCC[C@@H]65)noc4c3F)CC3(C(=O)NC(=O)NC3=O)[C@H]2[C@H](C)O1 [Compound 21, (2R,4S,4aS)-11-fluoro-2,4-dimethyl-8-((3aS,6aR)-2-oxotetrahydro-2H-cyclopentane[d]thiazol-3(3aH)-yl)-1,2,4,4a-tetrahydro-2′H,6H-spiro[isoxazole[4,5-g][1,4]oxazine [4,3-a]quinoline-5,5′-pyrimidine]-2′,4′,6′(1′H,3′H)-trione] | 0.03 to 0.125 µg/mL (≈ 0.0567 to 0.236 µM) | 0.03 to 0.125 µg/mL (≈ 0.0567 to 0.236 µM) | 0.03 to 0.06 µg/mL (≈ 0.0567 to 0.113 µM) | 0.03 to 0.125 µg/mL (≈ 0.0567 to 0.236 µM) | 0.03 to 0.125 µg/mL (≈ 0.0567 to 0.236 µM) | 0.03 to 0.125 µg/mL (≈ 0.0567 to 0.236 µM) |  |  |  |  |  |  |  |  |  |  |  |
| C=C1CN(c2noc3c(F)c4c(cc23)CC2(C(=O)NC(=O)NC2=O)[C@H]2[C@H](C)O[C@H](C)CN42)C(=O)S1 [Compound 25, (2R,4S,4aS)-11-fluoro-2,4-dimethyl-8-(5-methylene-2-oxothiazol-3-yl)-1,2,4,4a-tetrahydro-2′H,6H-spiro[isoxazole[4,5-g][1,4]oxazine[4,3-a]quinoline-5,5′-pyrimidine]-2′,4′,6′(1′H, 3′H)-trione] | < 0.03 µg/mL | < 0.03 µg/mL | < 0.03 µg/mL | < 0.03 µg/mL | < 0.03 µg/mL | < 0.03 µg/mL |  |  |  |  |  |  |  | about 8 times |  |  |  |
| C[C@H]1COc2c(N3CCN(C)CC3)c(F)cc3c(=O)c(C(=O)O)cn1c23 [levofloxacin, reference compound] |  |  |  |  |  |  |  |  |  |  |  |  |  |  | 0.5 to 1 µg/mL (≈ 1.38 to 2.77 µM) | 0.5 to 4 µg/mL (≈ 1.38 to 11.1 µM) | 1 µg/mL (≈ 2.77 µM) |

— US11180509B2, “Thiazolidone spiro pyrimidine trione compound, preparation method therefor and uses thereof” (SHANGHAI INSTITUTE OF MATERIA MEDICA, CHINESE ACADEMY OF …, priority 2017, dated 2021)
